Assay results: US9695155B2, “Herbicidal substituted pyrimidinyloxy benzene compounds” (E. I. DU PONT DE NEMOURS AND COMPANY, priority 2013, dated 2017)

Legend:
kochia = assay: Test C postemergence; assay type: in vivo, Kochia scoparia; conditions: for Kochia plant response rating / Plant response rating, Kochia: scale 0 to 100 (0 no effect, 100 complete control)
Source text: (§1) Seeds of plant species selected from blackgrass (Alopecurus myosuroides), Italian ryegrass (Lolium multiflorum), wheat, winter (winter wheat, Triticum aestivum), galium (catchweed bedstraw, Galium aparine), corn (Zea mays), large (Lg) crabgrass (Digitaria sanguinalis), giant foxtail (Setaria faberii), johnsongrass (Sorghum halepense), lambsquarters (Chenopodium album), morningglory (Ipomoea coccinea), yellow nutsedge (Cyperus esculentus), pigweed (Amaranthus retroflexus), ragweed (common ragweed, Ambrosia elatior), soybean (Glycine max), barnyardgrass (Echinochloa crus-galli), oilseed rape (Brassica napus), waterhemp (common waterhemp, Amaranthus rudis), kochia (Kochia scoparia), wild oat (Avena fatua), surinam grass (Brachiaria decumbens), foxtail, green (green foxtail, Setaria viridis), goosegrass (Eleusine indica), bromegrass, downy (downy bromegrass, Bromus tectorum), nightshade (eastern black nightshade, Solanum ptycanthum), cocklebur (common cocklebur, Xanthium strumarium), cupgrass, woolly (woolly cupgrass, Eriochloa villosa), bermudagrass (Cynodon dactylon), sunflower, (common oilseed sunflower, Helianthus annuus), Russian thistle (Salsola kali), and velvetleaf (Abutilon theophrasti) were planted into a blend of loam soil and sand and treated preemergence with test chemicals formulated in a non-phytotoxic solvent mixture which included a surfactant.
(§2) At the same time, plants selected from these crop and weed species and also barley, winter (winter barley, Hordeum vulgare), windgrass (Apera spica-venti), chickweed (common chickweed, Stellaria media), deadnettle (henbit deadnettle, Lamium amplexicaule), and canarygrass (littleseed canarygrass, Phalaris minor) were planted in pots containing Redi-Earth® planting medium (Scotts Company, 14111 Scottslawn Road, Marysville, Ohio 43041) comprising spaghnum peat moss, vermiculite, wetting agent and starter nutrients and treated with postemergence applications of test chemicals formulated in the same manner. Plants ranged in height from 2 to 18 cm (1- to 4-leaf stage) for postemergence treatments. Treated plants and controls were maintained in a greenhouse for 13 to 15 days, after which time all species were compared to controls and visually evaluated. Plant response ratings, summarized in Table C, are based on a scale of 0 to 100 where 0 is no effect and 100 is complete control. A dash (-) response means no test result.

pigweed = assay: Test A preemergence; assay type: in vivo, Amaranthus retroflexus
Outline: (§3)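 Injury scores run from 0, no effect, to 100, complete control, judged by eye against untreated plants roughly 10 days after treatment. Chemicals carried a surfactant in a non-phytotoxic solvent and went onto loam–sand soil preemergence or onto one- to two-leaf seedlings postemergence.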

chickweed = assay: Test C postemergence; assay type: in vivo, Stellaria media; conditions: for Chickweed plant response rating / Plant response rating, Chickweed: scale 0 to 100 (0 no effect, 100 complete control)
Source text: as §1, §2

wild oat = assay: Test C postemergence; assay type: in vivo, Avena fatua; conditions: for Oat, Wild plant response rating / Plant response rating, Oat, Wild: scale 0 to 100 (0 no effect, 100 complete control)
Source text: as §1, §2

barnyardgrass = assay: Test B flooded paddy test; assay type: in vivo, Echinochloa crus-galli; conditions: Flood, 250 g ai/ha; 0 to 100 scale where 0 is no effect and 100 is complete control
Outline: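 Flooded to 3 cm at the 2-leaf stage, pots received compound through the paddy water and were kept at that depth under greenhouse conditions. After 13–15 days, effect was rated by eye relative to controls, 0 = none and 100 = complete control.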

wheat, winter = assay: Test C postemergence; assay type: in vivo, Triticum aestivum; conditions: for Wheat plant response rating / Plant response rating, Wheat: scale 0 to 100 (0 no effect, 100 complete control)
Source text: as §1, §2

wheat = assay: Test A postemergence; assay type: in vivo, Triticum aestivum
Outline: as §3

giant foxtail = assay: Test A preemergence; assay type: in vivo, Setaria faberii; conditions: for Foxtail, Giant plant response rating (0 to 100 scale) / Plant response rating, Foxtail, Giant: 125 g ai/ha
Outline: as §3

morningglory = assay: Test A preemergence; assay type: in vivo, Ipomoea spp.
Outline: as §3

velvetleaf = assay: Test A postemergence; assay type: in vivo, Abutilon theophrasti
Outline: as §3

[1] = 16 g ai/ha, postemergence, 0 is no effect, 100 is complete control
[2] = 31 g ai/ha, postemergence, visual rating, 13 to 15 days
[3] = 125 g ai/ha, postemergence, visual rating
[4] = Postemergence, 62 g ai/ha, 13 to 15 days
[5] = 500 g ai/ha, 0 to 100 scale where 0 is no effect and 100 is complete control
[6] = 125 g ai/ha, 0 to 100 scale where 0 is no effect and 100 is complete control
[7] = 8 g ai/ha, postemergence, 0 is no effect, 100 is complete control
[8] = 0 to 100 scale where 0 is no effect and 100 is complete control
[9] = 1000 g ai/ha, 0 to 100 scale, 0 no effect, 100 complete control, approx. 10 days
[10] = 1000 g ai/ha, 0 to 100 scale, 0 no effect, 100 complete control
[11] = Postemergence, 31 g ai/ha, 13 to 15 days
[12] = 500 g ai/ha, 0 to 100 scale, 0 no effect, 100 complete control, approx. 10 days
[13] = 500 g ai/ha, 0 to 100 scale, 0 no effect, 100 complete control

Clc1cnc(Oc2cccc(Br)c2-n2cc(Cl)cn2)nc1 [Compound 221]
Plant response rating (0 to 100), Kochia (kochia; [1]): 90
Kochia plant response rating (kochia; [2]): 80
Plant response rating, Kochia (kochia; [3]): 95
Plant response rating, Kochia (kochia; [4]): 95
Pigweed plant response rating (0 to 100 scale) (pigweed; 125 g ai/ha): 100
Pigweed plant response rating (pigweed; [5]): 100
Plant response rating (0 to 100), Chickweed (chickweed; [1]): 20
Chickweed plant response rating (chickweed; [2]): 60
Plant response rating, Chickweed (chickweed; [3]): 50
Plant response rating, Chickweed (chickweed; [4]): 60
Plant response rating (0 to 100), Oat, Wild (wild oat; [1]): 5
Oat, Wild plant response rating (wild oat; [2]): 5
Plant response rating, Oat, Wild (wild oat; [3]): 30
Plant response rating, Oat, Wild (wild oat; [4]): 10
Plant response rating, Barnyardgrass (barnyardgrass): 0
Plant response rating (0 to 100), Wheat (wheat, winter; [1]): 0
Wheat plant response rating (wheat, winter; [2]): 0
Plant response rating, Wheat (wheat, winter; [3]): 0
Plant response rating, Wheat (wheat, winter; [4]): 0
Wheat plant response rating (wheat; [6]): 0
Plant response rating, Wheat (wheat; [5]): 30
Foxtail, Giant plant response rating (0 to 100 scale) (giant foxtail): 100
Foxtail, Giant plant response rating (giant foxtail; [5]): 100
Morningglory plant response rating (0 to 100 scale) (morningglory; 125 g ai/ha): 0
Morningglory plant response rating (morningglory; [5]): 10
Velvetleaf plant response rating (velvetleaf; [6]): 100
Plant response rating, Velvetleaf (velvetleaf; [5]): 100

Fc1cnc(Oc2ccccc2-n2cc(C(F)F)cn2)nc1 [Compound 228]
Plant response rating (0 to 100), Kochia (kochia; [1]): 30
Kochia plant response rating (kochia; [2]): 60
Plant response rating, Kochia (kochia; [3]): 85
Plant response rating, Kochia (kochia; [4]): 80
Pigweed plant response rating (0 to 100 scale) (pigweed; 125 g ai/ha): 0
Pigweed plant response rating (pigweed; [5]): 0
Plant response rating (0 to 100), Chickweed (chickweed; [1]): 10
Chickweed plant response rating (chickweed; [2]): 30
Plant response rating, Chickweed (chickweed; [3]): 50
Plant response rating, Chickweed (chickweed; [4]): 50
Plant response rating (0 to 100), Oat, Wild (wild oat; [1]): 0
Oat, Wild plant response rating (wild oat; [2]): 0
Plant response rating, Oat, Wild (wild oat; [3]): 5
Plant response rating, Oat, Wild (wild oat; [4]): 0
Plant response rating, Barnyardgrass (barnyardgrass): 0
Plant response rating (0 to 100), Wheat (wheat, winter; [1]): 0
Wheat plant response rating (wheat, winter; [2]): 0
Plant response rating, Wheat (wheat, winter; [3]): 0
Plant response rating, Wheat (wheat, winter; [4]): 0
Wheat plant response rating (wheat; [6]): 0
Plant response rating, Wheat (wheat; [5]): 70
Foxtail, Giant plant response rating (0 to 100 scale) (giant foxtail): 90
Foxtail, Giant plant response rating (giant foxtail; [5]): 100
Morningglory plant response rating (0 to 100 scale) (morningglory; 125 g ai/ha): 10
Morningglory plant response rating (morningglory; [5]): 80
Velvetleaf plant response rating (velvetleaf; [6]): 100
Plant response rating, Velvetleaf (velvetleaf; [5]): 100

O=Cc1cccc(Oc2ncc(I)cn2)c1-n1cc(Br)cn1 [Compound 172]
Plant response rating (0 to 100), Kochia (kochia; [7]): 0
Plant response rating (0 to 100), Kochia (kochia; [1]): 0
Kochia plant response rating (kochia; [2]): 0
Plant response rating, Kochia (kochia; Postemergence, 62 g ai/ha): 30
Pigweed plant response rating (0 to 100 scale) (pigweed; 125 g ai/ha): 0
Pigweed plant response rating (pigweed; [5]): 50
Plant response rating (0 to 100), Chickweed (chickweed; [7]): 0
Plant response rating (0 to 100), Chickweed (chickweed; [1]): 0
Chickweed plant response rating (chickweed; [2]): 50
Plant response rating, Chickweed (chickweed; Postemergence, 62 g ai/ha): 70
Plant response rating (0 to 100), Oat, Wild (wild oat; [7]): 0
Plant response rating (0 to 100), Oat, Wild (wild oat; [1]): 0
Oat, Wild plant response rating (wild oat; [2]): 0
Plant response rating, Oat, Wild (wild oat; Postemergence, 62 g ai/ha): 0
Plant response rating, Barnyardgrass (barnyardgrass): 0
Plant response rating (0 to 100), Wheat (wheat, winter; [7]): 0
Plant response rating (0 to 100), Wheat (wheat, winter; [1]): 0
Wheat plant response rating (wheat, winter; [2]): 0
Plant response rating, Wheat (wheat, winter; Postemergence, 62 g ai/ha): 0
Wheat plant response rating (wheat; [6]): 0
Plant response rating, Wheat (wheat; [5]): 0
Plant response rating, Foxtail, Giant (giant foxtail; [8]): 0
Foxtail, Giant plant response rating (giant foxtail; [5]): 0
Morningglory plant response rating (0 to 100 scale) (morningglory; 125 g ai/ha): 0
Morningglory plant response rating (morningglory; [5]): 0
Velvetleaf plant response rating (velvetleaf; [6]): 90
Plant response rating, Velvetleaf (velvetleaf; [5]): 100

Clc1cnc(Oc2ccccc2-n2cc(I)nn2)nc1 [Compound 222]
Plant response rating (0 to 100), Kochia (kochia; [7]): 60
Plant response rating (0 to 100), Kochia (kochia; [1]): 85
Kochia plant response rating (kochia; [2]): 100
Plant response rating, Kochia (kochia; [4]): 100
Pigweed plant response rating (pigweed; [9]): 100
Plant response rating (0 to 100), Chickweed (chickweed; [7]): 10
Plant response rating (0 to 100), Chickweed (chickweed; [1]): 60
Chickweed plant response rating (chickweed; [2]): 85
Plant response rating, Chickweed (chickweed; [4]): 100
Plant response rating (0 to 100), Oat, Wild (wild oat; [7]): 5
Plant response rating (0 to 100), Oat, Wild (wild oat; [1]): 10
Oat, Wild plant response rating (wild oat; [2]): 10
Plant response rating, Oat, Wild (wild oat; [4]): 30
Plant response rating, Barnyardgrass (barnyardgrass): 0
Plant response rating (0 to 100), Wheat (wheat, winter; [7]): 0
Plant response rating (0 to 100), Wheat (wheat, winter; [1]): 0
Wheat plant response rating (wheat, winter; [2]): 0
Plant response rating, Wheat (wheat, winter; [4]): 5
Plant response rating, Wheat (wheat; [10]): 40
Foxtail, Giant plant response rating (giant foxtail; [9]): 100
Morningglory plant response rating (morningglory; [9]): 100
Plant response rating, Velvetleaf (velvetleaf; [10]): 100

N#Cc1cccc(Oc2ncc(Br)cn2)c1-n1cc(Br)cn1 [Compound 57]
Plant response rating (0 to 100), Kochia (kochia; 125 g ai/ha, postemergence): 90
Plant response rating (0 to 100), Kochia (kochia; 250 g ai/ha, postemergence): 100
Plant response rating, Kochia (kochia; [11]): 85
Plant response rating, Kochia (kochia; Postemergence, 62 g ai/ha): 90
Plant response rating, Pigweed (pigweed; [6]): 100
Pigweed plant response rating (pigweed; [12]): 100
Plant response rating (0 to 100), Chickweed (chickweed; 125 g ai/ha, postemergence): 80
Plant response rating (0 to 100), Chickweed (chickweed; 250 g ai/ha, postemergence): 80
Plant response rating, Chickweed (chickweed; [11]): 50
Plant response rating, Chickweed (chickweed; Postemergence, 62 g ai/ha): 50
Plant response rating (0 to 100), Oat, Wild (wild oat; 125 g ai/ha, postemergence): 30
Plant response rating (0 to 100), Oat, Wild (wild oat; 250 g ai/ha, postemergence): 35
Plant response rating, Oat, Wild (wild oat; [11]): 10
Plant response rating, Oat, Wild (wild oat; Postemergence, 62 g ai/ha): 15
Plant response rating, Barnyardgrass (barnyardgrass): 0
Plant response rating (0 to 100), Wheat (wheat, winter; 125 g ai/ha, postemergence): 10
Plant response rating (0 to 100), Wheat (wheat, winter; 250 g ai/ha, postemergence): 15
Plant response rating, Wheat (wheat, winter; [11]): 0
Plant response rating, Wheat (wheat, winter; Postemergence, 62 g ai/ha): 5
Plant response rating, Wheat (wheat; [6]): 0
Plant response rating, Wheat (wheat; [13]): 30
Plant response rating, Foxtail, Giant (giant foxtail; [8]): 80
Foxtail, Giant plant response rating (giant foxtail; [12]): 100
Plant response rating, Morningglory (morningglory; [6]): 0
Morningglory plant response rating (morningglory; [12]): 40
Plant response rating, Velvetleaf (velvetleaf; [6]): 100
Plant response rating, Velvetleaf (velvetleaf; [13]): 100
